The results in this text go back to ChEMBL document CHEMBL4376833, “Influence of Non-natural Cationic Amino Acids on the Biological Activity Profile of Innate Defense Regulator Peptides” (J Med Chem, 2019).

In brackets after ≈: the same amount, converted by molar mass. Activity calls are given as the source filed them. Unless noted, the calls are words filed in the database; no cut-off is given here. Non-standard residues stand in square brackets, D forms with d. Residues, ends and D or L forms follow the SMILES beside them. Orn = NCCC[C@H](N)C(=O)O; Dap = NC[C@H](N)C(=O)O

The nature of series [1]: Binding affinity to SDS micelle assessed as blue shift with maximum emission at wavelength between 339 to 344 nm at 1 uM in TRIS buffer at pH 7.4 measured after 24 hrs by Trp emission fluorescence spectroscopy.
For series [2], the system named is Staphylococcus aureus. The series can be described thus: Antibacterial activity against methicillin-resistant Staphylococcus aureus assessed as alteration in bacterial growth in TSB medium supplemented with 1% glucose up to 64 uM measured after overnight incubation by CLSI protocol based broth dilution method. The format is functional, organism-based. A general note: Broth dilution looks for growth in wells or tubes with falling amounts of substance.

Series [3] is described as follows: Binding affinity to DPC micelle assessed as blue shift with maximum fluorescence emission at 1 uM in TRIS buffer at pH 7.4 measured after 24 hrs by Trp emission fluorescence spectroscopy.
Series [4] can be described thus: Binding affinity to DPC micelle assessed as increase in fluorescence emission intensity at maximum wavelength at 1 uM in TRIS buffer at pH 7.4 measured after 24 hrs by Trp emission fluorescence spectroscopy relative to TRIS buffer.
Series [5] is described as follows: Stability of compound assessed as bovine trypsin-mediated compound hydrolysis at 10 uM incubated for 30 mins by RP-HPLC analysis. The format is ADME, Bos taurus. Particulars: cattle, read-out: Drug degradation.
For series [6], the system named is Staphylococcus aureus. Put plainly: Antibiofilm activity against methicillin-resistant Staphylococcus aureus assessed as inhibition of biofilm formation incubated for overnight by crystal violet staining based microtiter plate assay. The format is functional, organism-based.
Series [7] has as its system Staphylococcus aureus. The series can be described thus: Antibacterial activity against methicillin-resistant Staphylococcus aureus assessed as alteration in bacterial growth in TSB medium supplemented with 1% glucose at concentration of MIC in MHB medium measured after overnight incubation by CLSI protocol based broth dilution method. The format is functional, organism-based.

In series [8] the test system is PBMC. Put plainly: Immunostimulatory activity in human PBMC assessed as induction of chemokine MCP1 production at 10 to 40 uM incubated for overnight by ELISA. The format is functional, cell-based. (ELISA stands for enzyme-linked immunosorbent assay.)
Series [9] has as its system PBMC. The series can be described thus: Proinflammatory activity in human PBMC assessed as increase in LPS-stimulated IL1 production at 40 uM incubated for overnight in presence of Pseudomonas aeruginosa PAO1 LPS by ELISA relative to control. The format is cell-based.
Series [10] can be described thus: Binding affinity to SDS micelle assessed as increase in fluorescence emission intensity at maximum wavelength at 1 uM in TRIS buffer at pH 7.4 measured after 24 hrs by Trp emission fluorescence spectroscopy relative to TRIS buffer.
Series [11] relates to Staphylococcus aureus. The series can be described thus: Antibacterial activity against methicillin-resistant Staphylococcus aureus assessed as bacterial growth inhibition in TSB medium supplemented with 1% glucose measured after overnight incubation by CLSI protocol based broth dilution method. The format is functional, organism-based.
Series [12] deals with Staphylococcus aureus. Put plainly: Antibacterial activity against methicillin-resistant Staphylococcus aureus assessed as bacterial growth inhibition in MHB medium measured after overnight incubation by CLSI protocol based broth dilution method. The format is functional.
Series [13] deals with PBMC. Put plainly: Cytotoxicity against human PBMC assessed as decrease in cell viability at 10 to 40 uM incubated for overnight by LDH assay. The format is cell-based.
In series [14] the test system is PBMC. Put plainly: Antiinflammatory activity against LPS-stimulated human PBMC assessed as suppression of IL1 production at 10 to 40 uM incubated for overnight in presence of Pseudomonas aeruginosa PAO1 LPS by ELISA. The format is functional, cell-based.
The test system of series [15] is PBMC. The series can be described thus: Proinflammatory activity in human PBMC assessed as increase in LPS-stimulated IL1 production at 40 uM incubated for overnight in presence nof Pseudomonas aeruginosa PAO1 LPS by ELISA. The format is cell-based.
A short description of series [16]: Binding affinity to DPC micelle assessed as blue shift with maximum emission at wavelength of 352 nm at 1 uM in TRIS buffer at pH 7.4 measured after 24 hrs by Trp emission fluorescence spectroscopy.
Series [17] has as its system PBMC. Put plainly: Cytotoxicity against human PBMC assessed as decrease in cell viability at 40 uM incubated for overnight by LDH assay relative to control. The format is cell-based.
Series [18] relates to Staphylococcus aureus. Put plainly: Antibiofilm activity against methicillin-resistant Staphylococcus aureus assessed as inhibition of biofilm formation by measuring residual biofilm growth incubated for overnight at 10-fold dilution by crystal violet staining based microtiter plate assay relative to control. The format is functional.
A short description of series [19]: Binding affinity to DPC micelle assessed as blue shift with maximum emission at wavelength of 340 nm at 1 uM in TRIS buffer at pH 7.4 measured after 24 hrs by Trp emission fluorescence spectroscopy.
Series [20] concerns Staphylococcus aureus. The series can be described thus: Antibacterial activity against methicillin-resistant Staphylococcus aureus assessed as alteration in bacterial growth incubated for overnight by microtiter plate based spectrophotometric analysis. The format is functional, organism-based.

As usually defined, the IC50 is the concentration needed to halve the response being measured. As a reminder, the MIC is the lowest concentration found to suppress growth. In the case of `CC[C@H](C)[C@H](NC(=O)[C@H](CN)NC(=O)[C@@H](NC(=O)[C@H](C)NC(=O)[C@@H](NC(=O)[C@@H](NC(=O)[C@H](CC(C)C)NC(=O)[C@H](CN)NC(=O)[C@@H](N)C(C)C)[C@@H](C)CC)C(C)C)C(C)C)C(=O)N[C@@H](Cc1c[nH]c2ccccc12)C(=O)N[C@@H](CN)C(=O)N[C@@H](CN)C(N)=O` (H-V[Dap]LIVAV[Dap]IW[Dap][Dap]-NH2), the outcome in [1], in [2], in [3], in series [7] and in [8] was Active. Also, the fold change (FC) in series [4] lay within 2 to 6; in series [9], 4 to 8. In addition, the metabolised at 0.5 h, 10 µM in [5] is 30%. Further, the IC50 in series [6] stood at 12.8 µM. Also, the result in [10] was inactive. The inhibition result in [11] was “inactive”. The MIC in [12] is 4 µM (≈ 5.02 µg/mL). In addition, in [13], the Activity entry is “Non-Toxic”.
Consider `CC[C@H](C)[C@H](NC(=O)[C@H](CN)NC(=O)[C@@H](NC(=O)[C@H](CN)NC(=O)[C@@H](NC(=O)[C@@H](NC(=O)[C@H](CC(C)C)NC(=O)[C@H](CN)NC(=O)[C@@H](N)C(C)C)[C@@H](C)CC)C(C)C)C(C)C)C(=O)N[C@@H](Cc1c[nH]c2ccccc12)C(=O)N[C@@H](CN)C(=O)N[C@@H](CN)C(N)=O` (H-V[Dap]LIV[Dap]V[Dap]IW[Dap][Dap]-NH2), for which the outcome in series [1], in [2], in series [3] and in series [7] was Active. The fold change (FC) in series [4] lay within 2 to 6. For the same compound, the result in [14], in series [8] and in series [10] was inactive. In addition, in series [5], the metabolised at 0.5 h, 10 µM worked out at 14%. The IC50 in series [6] was found to be 19.6 µM. Moreover, the inhibition result in series [11] is “inactive”. The MIC in series [12] came to 8 µM (≈ 10.2 µg/mL). In addition, the Activity result in [13] is “Non-Toxic”.
As for `CC[C@H](C)[C@H](NC(=O)[C@H](CCCN)NC(=O)[C@@H](NC(=O)[C@H](C)NC(=O)[C@@H](NC(=O)[C@@H](NC(=O)[C@H](CC(C)C)NC(=O)[C@H](CCCN)NC(=O)[C@@H](N)C(C)C)[C@@H](C)CC)C(C)C)C(C)C)C(=O)N[C@@H](Cc1c[nH]c2ccccc12)C(=O)N[C@@H](CCCN)C(=O)N[C@@H](CCCN)C(N)=O` (H-V[Orn]LIVAV[Orn]IW[Orn][Orn]-NH2), the result in series [1], in series [2], in series [3], in [7] and in [8] was Active. The fold change (FC) in series [4] fell in the range of 2 to 6. Also, the half-inhibitory concentration (IC50) in series [6] stood at 32 µM. The Activity result is “Toxic” in series [15] and “Non-Toxic” in series [13]. Besides, in series [10], the result was inactive. In addition, in series [11], the inhibition entry is “inactive”. Further, the MIC in [12] is 8 µM (≈ 10.9 µg/mL).
With `CC[C@H](C)[C@H](NC(=O)[C@H](CCCN)NC(=O)[C@@H](NC(=O)[C@H](CCCN)NC(=O)[C@@H](NC(=O)[C@@H](NC(=O)[C@H](CC(C)C)NC(=O)[C@H](CCCN)NC(=O)[C@@H](N)C(C)C)[C@@H](C)CC)C(C)C)C(C)C)C(=O)N[C@@H](Cc1c[nH]c2ccccc12)C(=O)N[C@@H](CCCN)C(=O)N[C@@H](CCCN)C(N)=O` (H-V[Orn]LIV[Orn]V[Orn]IW[Orn][Orn]-NH2), the result in [1], in series [2], in [3], in series [7], in series [8] and in series [16] was Active. For the same compound, in series [4], the fold change (FC) lay in the range of 2 to 6. In addition, the metabolised at 0.5 h, 10 µM in series [5] came to 60%. Further, the IC50 in series [6] was 32 µM. In addition, the figures for the Activity entry in series [15] and in series [13] were “Toxic” and “Non-Toxic”, respectively. Further, the result in [10] was inactive. For the same compound, the inhibition entry in [11] is “inactive”. Further, the MIC in series [12] was 32 µM (≈ 45.1 µg/mL).
Regarding H-VKLIVAVKIWKK-NH2, the outcome in series [1], in series [2], in series [3], in series [7] and in series [8] was Active. The fold change (FC) in [4] lay within 2 to 6. Further, in series [5], the metabolised at 0.5 h, 10 µM stood at 5%. Further, the half-maximal inhibitory concentration (IC50) in series [6] was 12.7 µM. Also, the Activity entry is given as “Toxic” in [15] and “Non-Toxic” in series [13]. For the same compound, the result in series [10] was inactive. Moreover, the inhibition entry in series [11] was “inactive”. Moreover, the MIC in series [12] came out at 4 µM.
In the case of H-VKLIVKVKIWKK-NH2, the result in series [1], in series [2], in series [3], in [7] and in series [8] was Active. Also, in series [17], the Activity is 40%. Besides, the fold change (FC) is 2 to 6 in series [4], 4 to 8 in series [9] and 2.5 in series [10]. Besides, the metabolised at 0.5 h, 10 µM in series [5] came out at 18%. The IC50 in [6] turned out to be 9.9 µM. Also, the inhibition entry in [11] was “inactive”. For the same compound, the minimal inhibitory concentration (MIC) in series [12] amounted to 4 µM.
Take H-VRLIVAVRIWRR-NH2: the result in [1], in series [2], in [3], in series [19], in [7] and in series [20] was Active. Also, the “residual biofilm growth (% of control)” value in series [18] is reported as 8.5%. Also, the metabolised at 0.5 h, 10 µM in series [5] was 60%. The IC50 in series [6] lay within 4 to 6 µM. The inhibition entry in series [6] is “Dose-dependent effect”. Besides, the outcome in series [8] was inactive. In series [11], the inhibition entry was “inactive”. In addition, the MIC in series [12] amounted to 4 µM.
With H-VRLIVKVRIWRR-NH2, the outcome in [1], in series [2], in [3], in series [14], in series [7] and in series [20] was Active. In [18], the “residual biofilm growth (% of control)” value is recorded as 6.1%. Also, the fold change (FC) in series [4] was 2 to 6; in [10], 2.5. Moreover, in [5], the metabolised at 0.5 h, 10 µM came out at 60%. The IC50 in series [6] lay in the range of 4 to 6 µM. Further, the inhibition entry in [6] was “Dose-dependent effect”. Also, the result in series [8] was inactive. Further, the inhibition result in [11] is “inactive”. In [12], the minimum inhibitory concentration (MIC) was found to be 4 µM. Further, the Activity entry in series [13] is recorded as “Non-Toxic”.
Turning to H-VRLIVRVRIWRR-NH2, the outcome in series [1], in series [2], in series [3], in [14], in series [7] and in series [8] was Active. Besides, the outcome in series [20] was Active. Besides, the “residual biofilm growth (% of control)” value in [18] is 9.2%. Also, the fold change (FC) in series [4] was in the range of 2 to 6. Moreover, in series [5], the metabolised at 0.5 h, 10 µM is 90%. In series [6], the half-inhibitory concentration (IC50) was 4 to 6 µM. The inhibition result in series [6] was “Dose-dependent effect”. Moreover, in [10], the result was inactive. For the same compound, in series [11], the inhibition result was “inactive”. In series [12], the MIC came to 2 µM. Further, the Activity result in series [13] was “Non-Toxic”.
